# Test results as given in patent US20210161882A1, “DEPOT ADMINISTRATION OF ILOPERIDONE” (Vanda Pharmaceuticals Inc., priority 2018, published 2021).
# Assay: Crystalline iloperidone particle size determination (Malvern Mastersizer 2000 laser light scattering)
# Type: physicochemical
# Settings: wet dispersion in saturated 0.1% Tween 80, average of n=2 trials, each the average of 5 acquisitions
# Description: Crystalline iloperidone particle sizes are determined in accordance with the following example. The Malvern Mastersizer 2000 (Malvern Instruments, Ltd., Malvern, UK) laser light scattering particle size analyzer and Hydro 2000 (Malvern Instruments, Ltd., Malvern, UK) wet sample dispersion unit are turned on, allowing time for the laser to warm up, e.g., for about 30 minutes. The PC is turned on, Mastersizer 2000 software is opened, and a file is created for storing results. An instrument verification check is performed according to SGS SOP EQP-525-10 Operation Preventative Maintenance and Performance Verification of the Mastersizer 2000. A new file for results storage is created, and the device is configured for Existing SOP for iloperidone. The parameters listed under the SOP are verified to confirm accuracy, namely: sample material name, iloperidone depot for injection; refractive index, 1.53, absorption, 0.1; dispersant medium, saturate 0.1% Tween 80 (Sigma Aldrich Co., St. Louis, Mo.) with 0.1% w/v sample; refractive index, 1.33; result model, general purpose; particle shape, irregular; sensitivity, normal; pump speed, 2000 RPM; sample measurement time, 12 seconds (12,000 snaps); background measurement time, 12 seconds (12,000 snaps); size range, 0.020 to 2000.000 μm; aliquot per SOP, 1; number of measurement cycles, 5 (report average); obscuration limits, 10-20%. Verification is made that the outlet tube of the dispersion unit is into the waste tank, and the tank is not full; the waste container is emptied on an as needed basis. […]
# Samples are prepared by saturating 0.1% Tween 80 (Sigma-Aldrich Co., St. Louis, Mo.) polysorbate 80 with 0.1% w/v crystalline iloperidone. […] The SOP is started with the parameters for the sample so that the instrument is ready to perform measurements as soon as the sample is introduced to the Hydro 2000 unit. […] Each sample is measured twice (out of one preparation).
# The resulting histogram is then evaluated. […]
compound,measurement,value
"COc1cc(C(C)=O)ccc1OCCCN1CCC(c2noc3cc(F)ccc23)CC1 [crystalline iloperidone, 1-[4-[3-[4-(6-flouro-1,2-benzisoxazol-3-yl)-1-piperidinyl]propoxy]-3-methoxyphenyl]ethanone]",average Dv10,14-50 μm
same,average Dv50,91-118 μm
same,average Dv90,188-241 μm
